Series [1] is described as follows: Hydrogelation by folding and self-assembly. Type of series: physicochemical. As to conditions: pH 9, heating/cooling cycles. How it is done: The ability of MAX1 to undergo hydrogelation is dependent upon its unimolecular folded state. Under basic aqueous solution conditions (pH 9.0, 125 mM Borate, 10 mM NaCl), where some of the lysine side chains of MAX1 are neutral, this peptide intramolecularly folds into an amphiphilic β-hairpin (folding can also be triggered at pH 7 under physiological conditions). One face of the hairpin is lined with hydrophobic valine residues while the other face is lined with hydrophilic lysine residues, FIGS. 2 and 3A. After intramolecular folding, subsequent self-assembly of hairpins is facilitated (a) laterally via H-bond formation and attractive hydrophobic interactions between distinct hairpins as well as (b) facially by hydrophobic association of the valine-rich faces of the folded peptide resulting in hydrogelation, FIG. 3B. Since the charged state of the lysine residues are controlled by pH, the unimolecular folding is reversible. Lowering the pH below the intrinsic pKa of the lysine side chains results in intra-strand charge repulsion from neighboring lysines and subsequent unfolding of individual hairpins, ultimately dissolving the self-assembled hydrogel structure. This reversible behavior is unique when compared to β-sheet-rich hydrogels prepared from classical fibril-based designs. In these systems, the self-assembly process is irreversible.
There are reports of large polymers that are thermally responsive. The present invention provides the first system that employs temperature triggered folding to induce self-assembly. […] Heating the solution to 80° C. results in a spectra consistent with β-sheet structure. […] The temperatures used in both CD and rheology bracket the temperature (Tgel=60° C., FIG. 9) at which folding and consequent self-assembly is triggered. […] For example, free flowing peptide solutions could be prepared at room temperature and administered in vivo where the temperature of the body could induce gelation. Some Poly-N-isopropylacrylamide polymers have been engineered have been engineered to undergo such transitions ultimately affording extracellular-like scaffolds for tissue regeneration. The above studies support the idea that the formation of hydrophobic interactions are important. MAX1-3 all contain valines and threonines at hydrogen bonded positions. At these positions, their side chains prefer to adopt a trans rotamer. As a result, hydrophobic residues that oppose each other across the hairpin point their side chains in opposite directions thus making the formation of intramolecular hydrophobic interactions across the strands difficult, FIG. 11A. However, these side chains are nicely positioned to interact laterally with the hydrophobic side chains of neighboring hairpins in the self-assembled state, FIG. 11B. Forming these lateral hydrophobic interactions should favor self-assembly. […] In MAX4, opposing valine side chains are expected to point towards each other, FIG. 11B. Thus, the valine side chains of MAX4 are less likely than those in MAX1 to form lateral intermolecular hydrophobic interactions. If the formation of lateral intermolecular hydrophobic interactions is of more importance for self-assembly than intramolecular hydrophobic contacts, then the rate of self-assembly should be faster for MAX1 than for MAX4. This difference in rate should be evident in the rate of storage moduli (rigidity) increase. […] (Tgel=20° C. for both peptides). […]

Series [2] deals with fibroblasts (NIH 3T3, mouse). Kind of series: Fibroblast adhesion and proliferation on hydrogel by optical microscopy. It counts as cell-based. How it is done:
These cells were used as a model system because of their importance in connective tissue development and their easily distinguished morphology when adhered to the hydrogel scaffold. Qualitative studies were performed in which cells were added to either polystyrene control wells or wells containing a uniform slab (3 mm thick) of MAX1-hydrogel. Cell adhesion was qualitatively monitored via direct observation of cell spreading after four hours from the time of initial cell seeding by optical microscopy (a quantitative cell attachment assay is described below, see also Akiyama, S. K. Functional analysis of cell adhesion: Quantitation of cell-matrix attachment, 2002; Vol. 69, pp 281-296). Non-adhered fibroblasts have rounded morphologies and adhered fibroblasts have spread morphologies Proliferation was measured both qualitatively by optical microscopy and quantitatively by a ^3H thymidine-based cell seeding assay as described below. Hydrogels were prepared in 48 well tissue culture plates by either one of the following protocols. Protocol 1: MAX1 was dissolved in water (resulting in an acidic solution, pH~5) and an equal volume of buffer (pH 9, 250 mM borate, 20 mM NaCl) was added at room temperature to induce folding/self-assembly resulting in a 2 wt % hydrogel. The resulting gel was bathed in DMEM containing 10% calf serum and […] gentamicin. This allowed media to permeate throughout the gel and adjust the pH to 7.3 The storage moduli (rigidity) of gels prepared by protocol 1 are about 1600 Pa. Protocol 2: MAX1 was dissolved in water and an equal volume of serum free DMEM containing […] gentamicin was added to induce folding/self-assembly affording 2 wt % hydrogels. Depending on the experiment, DMEM containing calf serum can then be added to introduce serum proteins. The storage moduli of gels prepared by protocol 2 are about 1200 Pa. […] Proliferation of the cells occurs until confluency is reached, usually around 72 hours if 10^4 cells are initially plated, FIG. 16B. Cells remain viable for at least a month as long as fresh media is provided (we stopped the assay after 1 month). Cells added to control wells containing no gel show similar behavior, FIGS. 16 C and D. In FIGS. 16A-D, cells are plated in the presence of DMEM containing 10% calf serum. Serum proteins may help mediate cellular adhesion to the hydrogel by first coating the scaffold. To determine if the hydrogel scaffold alone is conducive to cell adhesion, cells were plated onto 2 wt. % hydrogels in the absence of serum. […] The incorporation of cell binding epitopes in peptides used in hydrogel formation may be used to enhance cell adhesion in the absence of serum.

“Also recorded” adds a separate entry of the source. Where no end group is shown, it is not given here.

For the sequence “VKVKVKVK V^DPPT KVKVKVKV-NH2 (not fully specified (C-terminus)) [MAX1]”, the “reversibility of thermally induced hydrogelation” value in series [1] is listed as “not reversible”. Also, the time to confluency result in series [2] (2 wt % gel, 10^4 cells initially plated, DMEM with 10% calf serum) was “around 72 hours”. Besides, in series [2] (2 wt % gel, DMEM with 10% calf serum, after four hours), the “fibroblast adhesion to gel surface in the presence of serum” value is given as “adhered; also recorded: efficiently attached”. For the same sequence, the “fibroblast attachment and spreading in the absence of serum, compared to serum containing cultures” value in series [2] (2 wt. % hydrogels, after about four hours) is recorded as “to a lesser extent; also recorded: less efficiently”. In addition, in series [2] (2 wt. % hydrogels, plated without serum, 72 hours), the “cell proliferation after addition of serum at four hours” value is “near confluency”. In addition, the “time cells remain viable on gel” value in series [2] (fresh media provided) is on record as no less than 1 month.

These data come from patent US8221773B2, “Hydrogels and uses thereof” (University of Delaware, priority 2004, dated 2012).
